Experimental data reported in patent US20040081624A1, “Liquid aerosol formulations and aerosol generating devices and methods for generating aerosols” (Chrysalis Technologies Incorporated, priority 2002, published 2004).

Assays:
Format in all cases: physicochemical
[1] = Aerosol particle size distribution by cascade impactor (MOUDI) of aerosol from heated capillary passage; settings: carrier 20 volume % ethanol in water
[2] = Visual inspection of deposited aerosol particles (cascade impactor plates); settings: carrier containing varying percentages of ethanol in water
Excerpt: The average MMAD of the aerosol particles was 0.66 microns.
Albuterol aerosol particles produced using a carrier containing varying percentages of ethanol in water as described above were visually analyzed and determined to be dry aerosols.

[3] = Observation of breakdown products / degradation during aerosol generation; settings: carrier including ethanol; summary of tests
Excerpt: Clogging of the capillary size passage of the aerosol generating device was not observed during these tests.

average MMAD of the albuterol aerosol particles [1]	nature of aerosol by visual analysis [2]	degradation [3]	Structure (SMILES)
about 3 microns	dry aerosols		CC(C)(C)NCC(O)c1ccc(O)c(CO)c1 (stereo not drawn) [albuterol]
		no observable degradation	CCCC1O[C@@H]2C[C@H]3[C@@H]4CCC5=CC(=O)C=C[C@]5(C)[C@H]4[C@@H](O)C[C@]3(C)[C@]2(C(=O)CO)O1 (stereo partly drawn) [budesonide]
